According to publication PMC4264174, “The Discovery of Aurora Kinase Inhibitor by Multi-Docking-Based Virtual Screening” (International Journal of Molecular Sciences, 2014):

How the values were obtained:
Aurora-A (h) = target: T1, Aurora-A (h) (Homo sapiens, UniProt O14965); assay: Kinase Profiler in vitro assay (Merck Millipore), aurora-A; assay type: biochemical; details: for IC50: at aurora A (h); for inhibition at 100 µM: Aurora-A, at 100 μM concentration, with standard deviation
T1 construct: purchased Merck Millipore, Inc. (Abingdon, UK), Kinase Profiler service
T1 sequence (O14965 1-403): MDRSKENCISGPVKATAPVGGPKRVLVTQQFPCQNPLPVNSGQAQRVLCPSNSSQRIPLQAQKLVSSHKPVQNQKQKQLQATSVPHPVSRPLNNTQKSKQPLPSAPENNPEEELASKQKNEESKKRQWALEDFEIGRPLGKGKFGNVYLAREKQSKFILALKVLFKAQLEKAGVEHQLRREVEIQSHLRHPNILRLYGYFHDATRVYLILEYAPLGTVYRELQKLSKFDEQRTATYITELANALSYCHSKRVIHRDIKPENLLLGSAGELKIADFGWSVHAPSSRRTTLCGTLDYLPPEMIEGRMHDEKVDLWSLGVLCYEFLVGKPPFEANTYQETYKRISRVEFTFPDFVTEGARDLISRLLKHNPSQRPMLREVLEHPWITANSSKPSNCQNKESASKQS
Method: The fragments obtained from the above-mentioned docking study were purchased from commercial websites and evaluated using the Kinase Profiler in vitro assay technique developed by Merck Millipore, Inc., (Abingdon, UK). The aurora-A kinase was maintained with 8 mM […] at pH 7.0, 0.2 mM EDTA, 200 μM LRRASLG (Kemptide, American peptide Company, Sunnyvale, CA, USA), 10 mM MgAcetate, and [γ-33P-ATP]. The kinase reaction began with the addition of the MgATP mixture. The buffer-MgATP mixture was incubated for 40 min at room temperature. After incubation, the reaction was stopped through the addition of a 3% phosphoric acid solution. Then, a 10 μL reaction was spotted onto a P30 filtermat. The spotted P30 filtermat was washed three times for 5 min in 50 mM phosphoric acid and once in methanol prior to the drying and scintillation counting step.

Aurora-B (h) = target: T2, Aurora-B (h) (Homo sapiens, UniProt Q96GD4); assay: Kinase Profiler in vitro assay, aurora-B; assay type: biochemical
T2 construct: purchased Merck Millipore, Inc. (Abingdon, UK), Kinase Profiler service
T2 sequence (Q96GD4 whole entry): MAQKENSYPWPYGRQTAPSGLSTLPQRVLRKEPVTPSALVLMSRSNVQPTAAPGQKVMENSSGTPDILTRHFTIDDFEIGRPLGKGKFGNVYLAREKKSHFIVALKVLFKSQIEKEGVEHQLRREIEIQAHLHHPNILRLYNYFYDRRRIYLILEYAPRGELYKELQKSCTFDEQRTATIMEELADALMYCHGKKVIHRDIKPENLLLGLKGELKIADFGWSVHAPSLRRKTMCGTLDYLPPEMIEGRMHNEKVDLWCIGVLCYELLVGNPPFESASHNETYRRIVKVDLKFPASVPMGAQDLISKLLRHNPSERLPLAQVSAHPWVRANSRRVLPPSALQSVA

Aurora-C (h) = target: T3, Aurora-C (h) (Homo sapiens, UniProt Q9UQB9); assay: Kinase Profiler in vitro assay, aurora-C; assay type: biochemical
T3 construct: purchased Merck Millipore, Inc. (Abingdon, UK), Kinase Profiler service
T3 sequence (Q9UQB9 1-309): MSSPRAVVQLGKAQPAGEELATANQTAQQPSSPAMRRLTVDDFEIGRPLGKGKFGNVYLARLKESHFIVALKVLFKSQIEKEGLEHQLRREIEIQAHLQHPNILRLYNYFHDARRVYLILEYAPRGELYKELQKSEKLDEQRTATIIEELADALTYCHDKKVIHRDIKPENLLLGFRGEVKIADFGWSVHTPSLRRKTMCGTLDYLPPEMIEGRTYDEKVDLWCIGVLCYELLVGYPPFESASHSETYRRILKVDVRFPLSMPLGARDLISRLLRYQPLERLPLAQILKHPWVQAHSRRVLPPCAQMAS

aurora-A = details: cited from earlier work

Row | SMILES | inhibition at 100 µM (Aurora-A (h)) | other results
1 | O=C1C(Nc2ccc(Cl)cc2)=C(Cl)C(=O)c2[nH]c(C(F)(F)F)nc21 [Compound 16] |  | inhibition at 10 µM (Aurora-A (h)): 52%; IC50 (Aurora-A (h)): 9.17 µM; inhibition at 10 µM (Aurora-B (h)): 84 ± 1%; inhibition at 10 µM (Aurora-C (h)): 8 ± 8%
2 | O=C1C(Nc2cccc(Cl)c2)=C(Cl)C(=O)c2[nH]c(C(F)(F)F)nc21 [Compound 17] |  | inhibition at 10 µM (Aurora-A (h)): 65%; IC50 (Aurora-A (h)): 7.47 µM; inhibition at 10 µM (Aurora-B (h)): 76 ± 1%; inhibition at 10 µM (Aurora-C (h)): 17 ± 4%
3 | O=c1cc(-c2ccccc2)[nH]c2nc(SCc3ccccc3)nn12 [Fragment 2] | 13 ± 12% | 
4 | Cc1cc(C)cc(Nc2ncc3c(n2)C[C@@H](c2cccs2)CC3=O)c1 [Fragment 3] | > 50% | 
5 | COC(=O)CSc1nnc(-c2n[nH]c3c2CCC3)n1N [Fragment 4] | 28 ± 1% | 
6 | Cc1nn2c(nc3ccccc32)[nH]c1=O [Fragment 5] | 31 ± 6% | 
7 | COC(=O)/C=C1\S/C(=N\NC(=O)c2snnc2C)NC1=O [Fragment 7] | 35 ± 3% | 
8 | COC(=O)c1nc2[nH]c(=O)cc(C)n2n1 [Fragment 8] | 24 ± 4% | 
9 | Cc1nonc1-c1ccnc2nnc(N)n12 [Fragment 9] | 8 ± 10% | 
10 | COc1cnc(NCc2ncn[nH]2)nc1-c1ccnn1C [Fragment 11] | 25 ± 2% | 
11 | O=C1C=CC(=O)c2[nH]c(C(F)(F)F)nc21 [Fragment 12] | 93 ± 2% | 
12 | Cc1nnsc1C(=O)Nc1onc2c1CSC2 [Fragment 13] | > 50% | 
13 | O=C(Nc1onc2c1CCCC2)c1nc(-c2cnccn2)no1 [Fragment 14] | 39 ± 3% | 
14 | C/C=C/C(=O)Nn1cnc2c(cnn2-c2ccccc2)c1=O [Fragment 15] | 2 ± 15% | 
16 | CN[C@@H]1C[C@H]2O[C@@](C)([C@@H]1OC)n1c3ccccc3c3c4c(c5c6ccccc6n2c5c31)C(=O)NC4 [Staurosporine, reference compound] |  | inhibition at 10 µM (Aurora-A (h)): 100%
